Calls of active or inactive are those of the source. No cut-off for these calls is given here.
Experiments:
Mus musculus [1] = assay: Synergistic antiatherosclerotic activity in hypercholesterolemic ApoE-/- mouse model assessed as increase in liver LDLR at 5 to 15 mg/kg, ip administered daily for 3 weeks in presence of SIMV by Western blot analysis; assay type: functional, organism-based; conditions: dose 5-15 mg/kg
Mus musculus [2] = assay: Antiatherosclerotic activity in hypercholesterolemic ApoE-/- mouse model assessed as decrease in liver fibrosis at 5 to 15 mg/kg/day, ip measured after 21 days by Masson staining based analysis; assay type: functional, organism-based; conditions: dose 5-15 mg/kg/day, time 21.0 day
Huh-7 [3] = assay: Effect on autophagic flux in human Huh-7 cells upto 100 nM incubated for 24 hrs by Western blot analysis; assay type: functional, cell-based
Huh-7 [4] = assay: Effect on LC3B level in human Huh-7 cells upto 100 nM incubated for 24 hrs by Western blot analysis; assay type: functional, cell-based
Mus musculus [5] = assay: Antiatherosclerotic activity in hypercholesterolemic ApoE-/- mouse model assessed as increase in liver LDLR level at 5 to 15 mg/kg/day, ip measured after 21 days by immunohistochemistry analysis; assay type: functional, organism-based; conditions: dose 5-15 mg/kg/day, time 21.0 day
Mus musculus [6] = assay: Antiatherosclerotic activity in hypercholesterolemic ApoE-/- mouse model assessed as decrease in liver damage at 5 to 15 mg/kg/day, ip measured after 21 days; assay type: functional, organism-based; conditions: dose 5-15 mg/kg/day, time 21.0 day
Mus musculus [7] = assay: Synergistic antiatherosclerotic activity in hypercholesterolemic ApoE-/- mouse model assessed as effect on plasma TG level at 5 to 15 mg/kg, ip administered daily for 3 weeks in presence of SIMV; assay type: functional, organism-based; conditions: dose 5-15 mg/kg
Mus musculus [8] = assay: Antiatherosclerotic activity in hypercholesterolemic ApoE-/- mouse model assessed as decrease in plasma TG level administered intraperitoneally measured after 21 days; assay type: functional, organism-based; conditions: dose 5-15 mg/kg/day, route ip, time 21.0 day
Mus musculus [9] = assay: Antiatherosclerotic activity in hypercholesterolemic ApoE-/- mouse model assessed as decrease in plasma LDL-C level administered intraperitoneally measured after 21 days; assay type: functional, organism-based; conditions: dose 5-15 mg/kg/day, route ip, time 21.0 day
Mus musculus [10] = assay: Antiatherosclerotic activity in hypercholesterolemic ApoE-/- mouse model assessed as decrease in oxidative stress in liver at 5 to 15 mg/kg/day, ip measured after 21 days; assay type: functional, organism-based; conditions: dose 5-15 mg/kg/day, time 21.0 day
Mus musculus [11] = assay: Synergistic antiatherosclerotic activity in hypercholesterolemic ApoE-/- mouse model assessed as effect on plasma LDH level at 5 to 15 mg/kg, ip administered daily for 3 weeks in presence of SIMV; assay type: functional, organism-based; conditions: dose 5-15 mg/kg
Mus musculus [12] = assay: Synergistic antiatherosclerotic activity in hypercholesterolemic ApoE-/- mouse model assessed as decrease in plaque area in aortic arch at 5 to 15 mg/kg, ip administered daily for 3 weeks in presence of SIMV by Aortic oil red O staining based analysis; assay type: functional, organism-based; conditions: dose 5-15 mg/kg
Mus musculus [13] = assay: Synergistic antiatherosclerotic activity in hypercholesterolemic ApoE-/- mouse model assessed as increase in liver LDL uptake capacity at 5 to 15 mg/kg, ip administered daily for 3 weeks in presence of SIMV by Western blot analysis; assay type: functional, organism-based; conditions: dose 5-15 mg/kg
Mus musculus [14] = assay: Antiatherosclerotic activity in hypercholesterolemic ApoE-/- mouse model assessed as increase in liver LDLR level at 5 to 15 mg/kg/day, ip measured after 21 days by Western blot analysis; assay type: functional, organism-based; conditions: dose 5-15 mg/kg/day, time 21.0 day
Mus musculus [15] = assay: Synergistic antiatherosclerotic activity in hypercholesterolemic ApoE-/- mouse model assessed as decrease in liver fibrosis at 5 to 15 mg/kg, ip administered daily for 3 weeks in presence of SIMV by Masson staining based analysis; assay type: functional, organism-based; conditions: dose 5-15 mg/kg
Mus musculus [16] = assay: Antiatherosclerotic activity in hypercholesterolemic ApoE-/- mouse model assessed as decrease in plasma triglyceride level administered intraperitoneally measured after 14 days; assay type: functional, organism-based; conditions: dose 15.0 mg/kg/day, route ip, time 14.0 day
Mus musculus [17] = assay: Synergistic antiatherosclerotic activity in hypercholesterolemic ApoE-/- mouse model assessed as effect on plasma MDA level at 5 to 15 mg/kg, ip administered daily for 3 weeks in presence of SIMV; assay type: functional, organism-based; conditions: dose 5-15 mg/kg
Mus musculus [18] = assay: Antiatherosclerotic activity in hypercholesterolemic ApoE-/- mouse model assessed as decrease in liver PCSK9 level at 5 to 15 mg/kg/day, ip measured after 21 days by Western blot analysis; assay type: functional, organism-based; conditions: dose 5-15 mg/kg/day, time 21.0 day
Mus musculus [19] = assay: Synergistic antiatherosclerotic activity in hypercholesterolemic ApoE-/- mouse model assessed as […] in liver IL-1beta level at 5 to 15 mg/kg, ip administered daily for 3 weeks in presence of SIMV by Western blot analysis; assay type: functional, organism-based; conditions: dose 5-15 mg/kg
Mus musculus [20] = assay: Synergistic antiatherosclerotic activity in hypercholesterolemic ApoE-/- mouse model assessed as decrease in vacuolization in liver at 5 to 15 mg/kg, ip administered daily for 3 weeks in presence of SIMV by H and E staining based analysis; assay type: functional, organism-based; conditions: dose 5-15 mg/kg
Mus musculus [21] = assay: Synergistic antiatherosclerotic activity in hypercholesterolemic ApoE-/- mouse model assessed as decrease in vacuolization in liver at 5 to 15 mg/kg, ip administered daily for 3 weeks in presence of SIMV by Masson staining based analysis; assay type: functional, organism-based; conditions: dose 5-15 mg/kg
Huh-7 [22] = assay: Effect on PCSK9 mRNA level in human Huh-7 cells at 20 to 500 nM incubated for 12 hrs by qRT-PCR analysis; assay type: functional, cell-based; conditions: dose 20-500 nM
Mus musculus [23] = assay: Synergistic antiatherosclerotic activity in hypercholesterolemic ApoE-/- mouse model assessed as decrease in plasma LDL-C level at 15 mg/kg, ip administered daily for 3 weeks in presence of SIMV; assay type: functional; set-up: scale not given: the % may be the effect or the level left
Huh-7 [24] = assay: Effect on SREBP2 mRNA level in human Huh-7 cells at 20 to 500 nM incubated for 12 hrs by qRT-PCR analysis; assay type: functional, cell-based; conditions: dose 20-500 nM
Mus musculus [25] = assay: Antiatherosclerotic activity in hypercholesterolemic ApoE-/- mouse model assessed as decrease in plaque area in aortic arch at 5 to 15 mg/kg/day, ip measured after 21 days by Aortic oil red O staining based analysis; assay type: functional, organism-based; conditions: dose 5-15 mg/kg/day, time 21.0 day
Mus musculus [26] = assay: Antiatherosclerotic activity in hypercholesterolemic ApoE-/- mouse model assessed as decrease in oxidative stress at 5 to 15 mg/kg/day, ip measured after 21 days; assay type: functional, organism-based; conditions: dose 5-15 mg/kg/day, time 21.0 day
Mus musculus [27] = assay: Synergistic antiatherosclerotic activity in hypercholesterolemic ApoE-/- mouse model assessed as decrease in liver fibrosis at 5 to 15 mg/kg, ip administered daily for 3 weeks in presence of SIMV by H and E staining based analysis; assay type: functional, organism-based; conditions: dose 5-15 mg/kg
Liver = assay: In vivo induction of PCSK9 degradation in liver of hypercholesterolemic ApoE-/- mouse model at administered intraperitoneally daily for 3 weeks in presence of SIMV by Western blot analysis; assay type: functional, organism-based; conditions: dose 5-15 mg/kg, route ip
Mus musculus [28] = assay: Synergistic antiatherosclerotic activity in hypercholesterolemic ApoE-/- mouse model assessed as decrease in liver cholesterol level at 5 to 15 mg/kg, ip administered daily for 3 weeks in presence of SIMV; assay type: functional, organism-based; conditions: dose 5-15 mg/kg
Mus musculus [29] = assay: Antiatherosclerotic activity in hypercholesterolemic ApoE-/- mouse model assessed as decrease in plaque area in […] at 5 to 15 mg/kg/day, ip measured after 21 days; assay type: functional, organism-based; conditions: dose 5-15 mg/kg/day, time 21.0 day
Huh-7 [30] = assay: Cytotoxicity against human Huh-7 cells upto 1000 nM incubated for 24 hrs by MTT assay; assay type: toxicity, cell-based; conditions: huh-7, 24 h, 1 µM
Mus musculus [31] = assay: Synergistic antiatherosclerotic activity in hypercholesterolemic ApoE-/- mouse model assessed as effect on plasma GSH level at 5 to 15 mg/kg, ip administered daily for 3 weeks in presence of SIMV; assay type: functional, organism-based; conditions: dose 5-15 mg/kg
Mus musculus [32] = assay: Antiatherosclerotic activity in hypercholesterolemic ApoE-/- mouse model assessed as decrease in liver PCSK9 level at 5 to 15 mg/kg/day, ip measured after 21 days by immunohistochemistry analysis; assay type: functional, organism-based; conditions: dose 5-15 mg/kg/day, time 21.0 day
Mus musculus [33] = assay: Effect on body weight in hypercholesterolemic ApoE-/- mouse model at 0.5 to 30 mg/kg/day, ip measured for 14 days; assay type: functional, organism-based; conditions: dose 0.5-30 mg/kg/day, time 14.0 day
Mus musculus [34] = assay: Antiatherosclerotic activity in hypercholesterolemic ApoE-/- mouse model assessed as decrease in vacuolization in liver at 5 to 15 mg/kg/day, ip measured after 21 days by H and E staining based analysis; assay type: functional, organism-based; conditions: dose 5-15 mg/kg/day, time 21.0 day
Huh-7 [35] = conditions: Homo sapiens, dose <= 100.0 nM
Description: Inhibition of oxidative stress injury in PA/LPS-stimulated human Huh-7 cells assessed as decrease in triglyceride level upto 100 nM

Mus musculus [36] = assay: Antiatherosclerotic activity in hypercholesterolemic ApoE-/- mouse model assessed as increase in liver LDLR level administered intraperitoneally measured after 14 days; assay type: functional, organism-based; conditions: dose 15.0 mg/kg/day, route ip, time 14.0 day
Mus musculus [37] = assay: Antiatherosclerotic activity in hypercholesterolemic ApoE-/- mouse model assessed as decrease in plasma PCSK9 level at 5 to 15 mg/kg/day, ip measured after 21 days; assay type: functional, organism-based; conditions: dose 5-15 mg/kg/day, time 21.0 day
Huh-7 [38] = assay: Effect on LDLR mRNA level in human Huh-7 cells at 20 to 500 nM incubated for 12 hrs by qRT-PCR analysis; assay type: functional, cell-based; conditions: dose 20-500 nM
Mus musculus [39] = assay: Antiatherosclerotic activity in hypercholesterolemic ApoE-/- mouse model assessed as decrease in liver fibrosis at 5 to 15 mg/kg/day, ip measured after 21 days by H and E staining based analysis; assay type: functional, organism-based; conditions: dose 5-15 mg/kg/day, time 21.0 day
Mus musculus [40] = assay: Antiatherosclerotic activity in hypercholesterolemic ApoE-/- mouse model assessed as decrease in plasma LDL-C level administered intraperitoneally measured after 14 days; assay type: functional, organism-based; conditions: dose 15.0 mg/kg/day, route ip, time 14.0 day
Mus musculus [41] = assay: Antiatherosclerotic activity in hypercholesterolemic ApoE-/- mouse model assessed as decrease in TG accumulation in liver at 5 to 15 mg/kg/day, ip measured after 21 days; assay type: functional, organism-based; conditions: dose 5-15 mg/kg/day, time 21.0 day
Mus musculus [42] = assay: Antiatherosclerotic activity in hypercholesterolemic ApoE-/- mouse model assessed as accumulation of cholesterol in liver at 5 to 15 mg/kg/day, ip measured after 21 days; assay type: functional, organism-based; conditions: dose 5-15 mg/kg/day, time 21.0 day
Mus musculus [43] = assay: Synergistic antiatherosclerotic activity in hypercholesterolemic ApoE-/- mouse model assessed as decrease in liver oxidative stress at 5 to 15 mg/kg, ip administered daily for 3 weeks in presence of SIMV; assay type: functional, organism-based; conditions: dose 5-15 mg/kg
Mus musculus [44] = assay: Antiatherosclerotic activity in hypercholesterolemic ApoE-/- mouse model assessed as decrease in vacuolization in liver at 5 to 15 mg/kg/day, ip measured after 21 days by Masson staining based analysis; assay type: functional, organism-based; conditions: dose 5-15 mg/kg/day, time 21.0 day
Mus musculus [45] = assay: Antiatherosclerotic activity in hypercholesterolemic ApoE-/- mouse model assessed as decrease in liver PCSK9 level administered intraperitoneally measured after 14 days; assay type: functional, organism-based; conditions: dose 15.0 mg/kg/day, route ip, time 14.0 day

COc1cc2c(cc1OCCCCN1C(=O)/C(=C\c3cc(Br)c(O)c(OC)c3)c3cc(Br)ccc31)C(C)(CC(=O)Nc1nccs1)NCC2 (stereo unspecified)
Activity (Mus musculus [1]): Active | Activity (Mus musculus [2]): Active | Activity (Huh-7 [3]): inactive | Activity (Huh-7 [4]): inactive | Activity (Mus musculus [5]): Active | Activity (Mus musculus [6]): Active | Activity (Mus musculus [7]): Active | Activity (Mus musculus [8]): Dose-Dependent Effect | Activity (Mus musculus [9]): Dose-Dependent Effect | Activity (Mus musculus [10]): Active | Activity (Mus musculus [11]): Active | Activity (Mus musculus [12]): Active | Activity (Mus musculus [13]): Active | Activity (Mus musculus [14]): Active | Activity (Mus musculus [15]): Active | Activity (Mus musculus [16]): Dose-Dependent Effect | Activity (Mus musculus [17]): Active | Activity (Mus musculus [18]): Active | Activity (Mus musculus [19]): Active | Activity (Mus musculus [20]): Active | Activity (Mus musculus [21]): Active | Activity (Huh-7 [22]): inactive | Activity (Mus musculus [23]): <=47.36% | Activity (Huh-7 [24]): inactive | Activity (Mus musculus [25]): Active | Activity (Mus musculus [26]): Active | Activity (Mus musculus [27]): Active | Activity (Liver): Dose-Dependent Effect | Activity (Mus musculus [28]): Active | Activity (Mus musculus [29]): Active | Activity (Huh-7 [30]): Non-Toxic | Activity (Mus musculus [31]): Active | Activity (Mus musculus [32]): Active | Activity (Mus musculus [33]): inactive | Activity (Mus musculus [34]): Active | inhibition (Huh-7 [35]): Active | Activity (Mus musculus [36]): Dose-Dependent Effect | Activity (Mus musculus [37]): Active | Activity (Huh-7 [38]): inactive | Activity (Mus musculus [39]): Active | Activity (Mus musculus [40]): Dose-Dependent Effect | Activity (Mus musculus [41]): Active | Activity (Mus musculus [42]): Active | Activity (Mus musculus [43]): Active | Activity (Mus musculus [44]): Active | Activity (Mus musculus [45]): Dose-Dependent Effect
